# What was measured:
# human diamine oxidase = target: T1, human diamine oxidase (Homo sapiens, UniProt P19801); assay: inhibition of human diamine oxidase; settings: qualitative statement
# T1 sequence (P19801 20-751): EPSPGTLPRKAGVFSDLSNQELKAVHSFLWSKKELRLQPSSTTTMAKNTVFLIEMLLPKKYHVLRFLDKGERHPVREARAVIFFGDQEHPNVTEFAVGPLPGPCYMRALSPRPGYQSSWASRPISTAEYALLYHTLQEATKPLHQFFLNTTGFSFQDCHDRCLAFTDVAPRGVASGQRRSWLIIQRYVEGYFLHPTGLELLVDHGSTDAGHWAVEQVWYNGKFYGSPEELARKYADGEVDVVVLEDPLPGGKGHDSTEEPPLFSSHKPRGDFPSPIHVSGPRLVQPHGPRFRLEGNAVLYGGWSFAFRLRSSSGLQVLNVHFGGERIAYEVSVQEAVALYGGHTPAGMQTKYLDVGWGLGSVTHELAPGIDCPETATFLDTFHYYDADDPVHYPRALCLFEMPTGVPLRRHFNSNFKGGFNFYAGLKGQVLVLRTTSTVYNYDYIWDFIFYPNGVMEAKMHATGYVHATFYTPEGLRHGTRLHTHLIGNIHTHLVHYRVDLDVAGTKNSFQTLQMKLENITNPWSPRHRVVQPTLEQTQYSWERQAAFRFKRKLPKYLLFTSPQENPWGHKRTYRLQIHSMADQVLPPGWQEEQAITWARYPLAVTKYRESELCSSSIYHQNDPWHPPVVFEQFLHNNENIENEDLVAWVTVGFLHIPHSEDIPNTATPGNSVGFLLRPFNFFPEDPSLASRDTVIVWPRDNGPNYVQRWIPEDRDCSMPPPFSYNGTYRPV
# HbA1c = settings: metformin on its own, in the diabetic; cited from earlier work
# SGLT2 versus SGLT1 = settings: Grempler et al. 2012; cited from earlier work
# [1] = test system: patients with type 2 diabetes mellitus; settings: patients with type 2 diabetes mellitus at high risk for cardiovascular events; Zinman et al. 2015; cited from earlier work
smiles,measurement,setting,value
"CC(C)(C)NC(=O)c1ccc(OC/C(=C/F)CN)cc1 [Compound 23, (E)-4-(2-(Aminomethyl)-3-fluoroallyloxy)-N-tert-butylbenzamide]",inhibitory activity against human diamine oxidase,human diamine oxidase,low inhibitory activity
CN(C)C(=N)N=C(N)N [metformin],average improvement in the HbA1c value,HbA1c,1.0-1.5%
OC[C@H]1O[C@@H](c2ccc(Cl)c(Cc3ccc(O[C@H]4CCOC4)cc3)c2)[C@H](O)[C@@H](O)[C@@H]1O [empagliflozin],selectivity SGLT2 versus SGLT1,SGLT2 versus SGLT1,high selectivity
same,rates of the primary composite cardiovascular outcome and of death from any cause,[1],significantly lower rates
